Laboratory results taken from the NIST ThermoML archive (doi:10.1016/j.jct.2013.09.043).
± gives the expanded uncertainty stated by the source.

Experiment: xn = mol fraction of the nth substance listed
Details: 101 kPa, Liquid; for viscosity: Capillary tube (Ostwald / Ubbelohde) method; for mass density: Vibrating tube method

NC=O [formamide] + CC(C)O
Details	mass density, 298.15 K [kg/m3]	mass density, 303.15 K [kg/m3]	mass density, 308.15 K [kg/m3]	mass density, 313.15 K [kg/m3]	viscosity, 298.15 K [mPa·s]	viscosity, 303.15 K [mPa·s]	viscosity, 308.15 K [mPa·s]	viscosity, 313.15 K [mPa·s]
x1 = 0.0831	797.37 ± 1	793.08 ± 1	788.56 ± 1	783.84 ± 1	2.167 ± 0.087	1.867 ± 0.075	1.623 ± 0.066	1.399 ± 0.057
x1 = 0.1563	813.03 ± 1	808.66 ± 1	803.98 ± 1	799.2 ± 1	2.254 ± 0.091	1.948 ± 0.079	1.688 ± 0.068	1.464 ± 0.059
x1 = 0.2377	831.8 ± 1	827.33 ± 1	822.51 ± 1	817.62 ± 1	2.382 ± 0.096	2.064 ± 0.083	1.791 ± 0.072	1.567 ± 0.063
x1 = 0.3518	860.85 ± 1	856.24 ± 1	851.26 ± 1	846.25 ± 1	2.585 ± 0.1	2.259 ± 0.091	1.974 ± 0.08	1.745 ± 0.07
x1 = 0.4403	885.89 ± 1	881.14 ± 1	876.01 ± 1	871.03 ± 1	2.739 ± 0.11	2.409 ± 0.097	2.115 ± 0.085	1.884 ± 0.076
x1 = 0.5371	916.34 ± 1	911.48 ± 1	906.38 ± 1	901.3 ± 1	2.888 ± 0.12	2.556 ± 0.1	2.256 ± 0.091	2.026 ± 0.082
x1 = 0.6352	950.91 ± 1	946.08 ± 1	940.93 ± 1	935.92 ± 1	3.015 ± 0.12	2.684 ± 0.11	2.371 ± 0.096	2.144 ± 0.087
x1 = 0.7388	992.47 ± 1	987.75 ± 1	982.64 ± 1	977.69 ± 1	3.127 ± 0.13	2.789 ± 0.11	2.464 ± 0.1	2.233 ± 0.09
x1 = 0.8497	1043.91 ± 1	1039.54 ± 1	1034.66 ± 1	1029.87 ± 1	3.218 ± 0.13	2.878 ± 0.12	2.541 ± 0.1	2.312 ± 0.093
x1 = 0.94	1092.69 ± 1	1088.45 ± 1	1083.96 ± 1	1079.51 ± 1	3.277 ± 0.13	2.939 ± 0.12	2.601 ± 0.11	2.377 ± 0.096
x1 = 1	1129 ± 1	1125.1 ± 1	1120.98 ± 1	1116.85 ± 1	3.305 ± 0.13	2.975 ± 0.12	2.64 ± 0.11	2.42 ± 0.098

NC=O [formamide] + CCC(C)O
Details	mass density, 298.15 K [kg/m3]	mass density, 303.15 K [kg/m3]	mass density, 308.15 K [kg/m3]	mass density, 313.15 K [kg/m3]	viscosity, 298.15 K [mPa·s]	viscosity, 303.15 K [mPa·s]	viscosity, 308.15 K [mPa·s]	viscosity, 313.15 K [mPa·s]
x1 = 0.0871	815.72 ± 1	811.44 ± 1	807.59 ± 1	802.69 ± 1	3.039 ± 0.12	2.541 ± 0.1	2.137 ± 0.087	1.81 ± 0.074
x1 = 0.1597	827.26 ± 1	822.99 ± 1	819.07 ± 1	814.17 ± 1	3.048 ± 0.12	2.561 ± 0.1	2.158 ± 0.088	1.836 ± 0.075
x1 = 0.2462	842.51 ± 1	838.24 ± 1	834.28 ± 1	829.39 ± 1	3.074 ± 0.12	2.601 ± 0.11	2.206 ± 0.09	1.893 ± 0.077
x1 = 0.3993	874.46 ± 1	870.19 ± 1	866.14 ± 1	861.25 ± 1	3.178 ± 0.13	2.729 ± 0.11	2.337 ± 0.095	2.037 ± 0.083
x1 = 0.4397	884.15 ± 1	879.88 ± 1	875.81 ± 1	870.92 ± 1	3.207 ± 0.13	2.763 ± 0.11	2.372 ± 0.096	2.078 ± 0.084
x1 = 0.5567	916.06 ± 1	911.78 ± 1	907.68 ± 1	902.82 ± 1	3.279 ± 0.13	2.855 ± 0.12	2.477 ± 0.1	2.195 ± 0.089
x1 = 0.6516	947.04 ± 1	942.76 ± 1	938.6 ± 1	933.86 ± 1	3.318 ± 0.13	2.911 ± 0.12	2.54 ± 0.1	2.272 ± 0.092
x1 = 0.7376	980.23 ± 1	975.94 ± 1	971.72 ± 1	967.08 ± 1	3.336 ± 0.14	2.945 ± 0.12	2.582 ± 0.1	2.324 ± 0.094
x1 = 0.8512	1033.92 ± 1	1029.63 ± 1	1025.39 ± 1	1020.93 ± 1	3.34 ± 0.14	2.973 ± 0.12	2.617 ± 0.11	2.371 ± 0.096
x1 = 0.9309	1080.54 ± 1	1076.36 ± 1	1072.19 ± 1	1067.81 ± 1	3.329 ± 0.14	2.98 ± 0.12	2.631 ± 0.11	2.398 ± 0.097
x1 = 1	1129 ± 1	1125.1 ± 1	1120.98 ± 1	1116.85 ± 1	3.305 ± 0.13	2.975 ± 0.12	2.64 ± 0.11	2.42 ± 0.098
